Assay results as given in US4864023A, “Pyrido(3,2,1-IJ)-1,3,4-benzoxadiazine derivatives” (priority 1988, dated 1989).
Converted amounts (≈) assume the structure as drawn. Like-named read-outs stand apart in the source and are kept apart here.

How the values were obtained:
Test in all cases: in vitro antibacterial activity, standard agar dilution method
Type in all cases: cell-based
[1] = system: Bacillus subtilis PCI 219; conditions: PCI219, aerobic, read-out: minimum inhibitory concentration (MIC)
[2] = system: Staphylococcus aureus FDA 209P JC-1; conditions: FDA209P, read-out: minimum inhibitory concentration (MIC)
[3] = system: Staphylococcus aureus NR 2855; conditions: NR2855; Staphylococcus aureus NR 2855; aerobic; agar dilution; read-out: minimum inhibitory concentration (MIC)
[4] = system: Staphylococcus aureus Smith; conditions: read-out: minimum inhibitory concentration (MIC)
[5] = system: Staphylococcus epidermidis IFO 12993; conditions: IFO12993, aerobic, read-out: minimum inhibitory concentration (MIC)
[6] = system: Staphylococcus epidermidis NR 2942; conditions: NR2942, aerobic, read-out: minimum inhibitory concentration (MIC)
[7] = system: Enterococcus faecalis NR 2943; conditions: NR2943, aerobic, read-out: minimum inhibitory concentration (MIC)
[8] = system: Alcaligenes faecalis IFO 13111; conditions: IFO13111, aerobic, read-out: minimum inhibitory concentration (MIC)
[9] = system: Citrobacter freundii IFO 12681; conditions: IFO12681, aerobic, read-out: minimum inhibitory concentration (MIC)
[10] = system: Enterobacter aerogenes NR 2945; conditions: Klebsiella aerogenes, NR2945, aerobic, read-out: minimum inhibitory concentration (MIC)
[11] = system: Enterobacter cloacae NR 2946; conditions: NR2946, aerobic, read-out: minimum inhibitory concentration (MIC)
[12] = system: Escherichia coli NIHJ JC-2; conditions: NIHJJC2, aerobic, read-out: minimum inhibitory concentration (MIC)
Escherichia coli NR 2630 = conditions: NR2630; Escherichia coli NR 2630; aerobic; agar dilution; read-out: minimum inhibitory concentration (MIC)
[13] = system: Klebsiella pneumoniae FDA PCI 602; conditions: FDAPCI602, aerobic, read-out: minimum inhibitory concentration (MIC)
[14] = system: Bordetella bronchiseptica ATCC 4617; conditions: ATCC4617, aerobic, read-out: minimum inhibitory concentration (MIC)
[15] = system: Proteus rettgeri ATCC 14505; conditions: Providencia rettgeri, ATCC14505, aerobic, read-out: minimum inhibitory concentration (MIC)
[16] = system: Proteus vulgaris OX19 ATCC 6898; conditions: ATCC6898, aerobic, read-out: minimum inhibitory concentration (MIC)
[17] = system: Pseudomonas aeruginosa A3; conditions: aerobic, read-out: minimum inhibitory concentration (MIC)
[18] = system: Pseudomonas aeruginosa NR 2950; conditions: NR2950, aerobic, read-out: minimum inhibitory concentration (MIC)
[19] = system: Serratia marcescens IFO 12648; conditions: IFO12648, aerobic, read-out: minimum inhibitory concentration (MIC)
[20] = system: Salmonella typhimurium IFO 12529; conditions: Salmonella enterica, aerobic, read-out: minimum inhibitory concentration (MIC)
[21] = Staphylococcus aureus FDA 209P JC-1, aerobic, agar dilution
[22] = Staphylococcus aureus Smith, aerobic, agar dilution

Row | Structure (SMILES) | MIC [1] [µg/mL] | MIC [2, 21] [µg/mL] | MIC [3] [µg/mL] | MIC [5] [µg/mL] | MIC [6] [µg/mL] | MIC [7] [µg/mL] | MIC [8] [µg/mL] | MIC [9] [µg/mL] | MIC [10] [µg/mL] | MIC [11] [µg/mL] | MIC [12] [µg/mL] | MIC (Escherichia coli NR 2630) [µg/mL] | MIC [13] [µg/mL] | MIC [14] [µg/mL] | MIC [15] [µg/mL] | MIC [16] [µg/mL] | MIC [17] [µg/mL] | MIC [18] [µg/mL] | MIC [19] [µg/mL] | MIC [20] [µg/mL] | further results
1 | CN1COc2c(N3CCC(CN)CC3)c(F)cc3c(=O)c(C(=O)O)cn1c23 [Example 12] | 0.1 (≈ 0.266 µM) | 0.1 (≈ 0.266 µM) | 0.78 (≈ 2.07 µM) | 0.39 (≈ 1.04 µM) | 0.39 (≈ 1.04 µM) | 3.13 (≈ 8.32 µM) | 50 (≈ 133 µM) | 0.78 (≈ 2.07 µM) | 0.2 (≈ 0.531 µM) | 0.78 (≈ 2.07 µM) | 0.2 (≈ 0.531 µM) | 0.1 (≈ 0.266 µM) | 3.13 (≈ 8.32 µM) | 6.25 (≈ 16.6 µM) | 12.5 (≈ 33.2 µM) | 0.1 (≈ 0.266 µM) | 0.78 (≈ 2.07 µM) | 12.5 (≈ 33.2 µM) | 3.13 (≈ 8.32 µM) | 0.2 (≈ 0.531 µM) | MIC [4, 22]: 0.1 µg/mL (≈ 0.266 µM)
2 | CN1COc2c(N3CCC(N)CC3)c(F)cc3c(=O)c(C(=O)O)cn1c23 [Example 33] | 0.2 (≈ 0.552 µM) | 0.2 (≈ 0.552 µM) | 1.56 (≈ 4.31 µM) | 0.78 (≈ 2.15 µM) | 0.78 (≈ 2.15 µM) | 3.13 (≈ 8.64 µM) | 50 (≈ 138 µM) | 0.2 (≈ 0.552 µM) | 0.05 (≈ 0.138 µM) | 0.2 (≈ 0.552 µM) | 0.2 (≈ 0.552 µM) | 0.1 (≈ 0.276 µM) | 0.78 (≈ 2.15 µM) | 25 (≈ 69 µM) | 1.56 (≈ 4.31 µM) | 0.05 (≈ 0.138 µM) | 0.39 (≈ 1.08 µM) | 6.25 (≈ 17.2 µM) | 0.78 (≈ 2.15 µM) | 0.1 (≈ 0.276 µM) | MIC [4, 22]: 0.2 µg/mL (≈ 0.552 µM)
3 | CCNC1CCN(c2c(F)cc3c(=O)c(C(=O)O)cn4c3c2OCN4C)CC1 [Example 35] | 0.05 (≈ 0.128 µM) | – | 1.56 (≈ 4 µM) | 0.78 (≈ 2 µM) | 0.78 (≈ 2 µM) | 6.25 (≈ 16 µM) | 25 (≈ 64 µM) | 0.2 (≈ 0.512 µM) | 0.1 (≈ 0.256 µM) | 0.39 (≈ 0.999 µM) | 0.1 (≈ 0.256 µM) | 0.1 (≈ 0.256 µM) | 1.56 (≈ 4 µM) | 12.5 (≈ 32 µM) | 3.13 (≈ 8.02 µM) | 0.05 (≈ 0.128 µM) | 1.56 (≈ 4 µM) | 12.5 (≈ 32 µM) | 1.56 (≈ 4 µM) | 0.1 (≈ 0.256 µM) | MIC ([2]; Staphylococcus aureus): 0.39 µg/mL (≈ 0.999 µM); MIC ([4]; Staphylococcus aureus): 0.39 µg/mL (≈ 0.999 µM)

Now from value to molecule, other results behind:

Row | MIC [1] [µg/mL] | MIC [2, 21] [µg/mL] | MIC [3] [µg/mL] | MIC [5] [µg/mL] | MIC [6] [µg/mL] | MIC [7] [µg/mL] | MIC [8] [µg/mL] | MIC [9] [µg/mL] | MIC [10] [µg/mL] | MIC [11] [µg/mL] | MIC [12] [µg/mL] | MIC (Escherichia coli NR 2630) [µg/mL] | MIC [13] [µg/mL] | MIC [14] [µg/mL] | MIC [15] [µg/mL] | MIC [16] [µg/mL] | MIC [17] [µg/mL] | MIC [18] [µg/mL] | MIC [19] [µg/mL] | MIC [20] [µg/mL] | Structure (SMILES) | further results
4 | 0.39 (≈ 1.08 µM) | 1.56 (≈ 4.31 µM) | 6.25 (≈ 17.3 µM) | 3.13 (≈ 8.64 µM) | 3.13 (≈ 8.64 µM) | 25 (≈ 69 µM) | 25 (≈ 69 µM) | 1.56 (≈ 4.31 µM) | 0.78 (≈ 2.15 µM) | 3.13 (≈ 8.64 µM) | 1.56 (≈ 4.31 µM) | 0.78 (≈ 2.15 µM) | 6.25 (≈ 17.3 µM) | 50 (≈ 138 µM) | 12.5 (≈ 34.5 µM) | 0.39 (≈ 1.08 µM) | 3.13 (≈ 8.64 µM) | 25 (≈ 69 µM) | 6.25 (≈ 17.3 µM) | 0.78 (≈ 2.15 µM) | CN1COc2c(N3CCNC(=O)C3)c(F)cc3c(=O)c(C(=O)O)cn1c23 [Example 24, 9-fluoro-3-methyl-7-oxo-10-(3-oxo-1-piperazinyl)-2,3-dihydro-7H-pyrido[3,2,1-ij]-1,3,4-benzoxadiazine-6-carboxylic acid] | MIC [4, 22]: 1.56 µg/mL (≈ 4.31 µM)
5 | 0.05 (≈ 0.133 µM) | 0.2 (≈ 0.531 µM) | 1.56 (≈ 4.14 µM) | 0.78 (≈ 2.07 µM) | 0.78 (≈ 2.07 µM) | 6.25 (≈ 16.6 µM) | 50 (≈ 133 µM) | 0.2 (≈ 0.531 µM) | 0.1 (≈ 0.266 µM) | 0.2 (≈ 0.531 µM) | 0.2 (≈ 0.531 µM) | 0.1 (≈ 0.266 µM) | 0.78 (≈ 2.07 µM) | 25 (≈ 66.4 µM) | 3.13 (≈ 8.32 µM) | 0.05 (≈ 0.133 µM) | 0.78 (≈ 2.07 µM) | 6.25 (≈ 16.6 µM) | 0.78 (≈ 2.07 µM) | 0.1 (≈ 0.266 µM) | CNC1CCN(c2c(F)cc3c(=O)c(C(=O)O)cn4c3c2OCN4C)CC1 [Example 34] | MIC [4, 22]: 0.2 µg/mL (≈ 0.531 µM)
